Paper PMC10870435, “A novel complement C3 inhibitor CP40-KK protects against experimental pulmonary arterial hypertension via an inflammasome NLRP3 associated pathway” (Journal of Translational Medicine, 2024)
Bridge positions count the residues as written; N and C are the ends. Square brackets hold non-standard residues; d marks the D form. Peptide text beside a SMILES is read from it. Trp(1-Me) = Cn1cc(C[C@H](N)C(=O)O)c2ccccc21; NMeI = CC[C@H](C)[C@H](NC)C(=O)O; Sar = CNCC(=O)O

Key:
[1] = test system: rat complement C3 function; test: CH50 test ex vivo, plasma of PAH experiment groups; assay type: in vivo; settings: 2 mg/kg s.c. day 15 to day 28
Experimental: In the current study, two animal experiments were conducted successively. 30 rats were randomly divided into two groups (control group and MCT group, n = 15 per group) in the first experiment. MCT group rats received a single intraperitoneally injection of MCT (40 mg/kg) on day 1 to induce PAH while control group rats received an equivoluminal saline injection intraperitoneally. For the second animal experiment, the rats were assigned into four groups (control group, MCT group, CP40-KK group, and MCT + CP40-KK group, n = 15 per group). […]
The total functional complement was determined with a CH50 assay based on the modified method of Mayer. […] The OD values of supernatant liquid in the ten tubes were measured at 541 nm and compared with that of the 50% haemolytic standard tube to get the most similar value. The total haemolytic complement (CH50) = dilution ratio / the quantity of plasma needed to induce 50% lysis of sheep erythrocytes.
Plasma samples for biological assays from rats were centrifuged and stored at -80°C until used, and the total functional complement was determined with a CH50 assay based on the modified method of Mayer. This assay involves determining the quantity of plasma needed to induce 50% lysis of sheep erythrocytes sensitized with antibody anti-sheep erythrocytes. […]

[2] = test system: MCT-induced rat PAH model; test: MCT-induced rat PAH model: hemodynamics, RV hypertrophy, vessel morphology; assay type: in vivo
Experimental: In the current study, two animal experiments were conducted successively. 30 rats were randomly divided into two groups (control group and MCT group, n = 15 per group) in the first experiment. MCT group rats received a single intraperitoneally injection of MCT (40 mg/kg) on day 1 to induce PAH while control group rats received an equivoluminal saline injection intraperitoneally. For the second animal experiment, the rats were assigned into four groups (control group, MCT group, CP40-KK group, and MCT + CP40-KK group, n = 15 per group). The control group was given the same volume of saline subcutaneously while the CP40-KK group rats only received CP40-KK (2 mg/kg) by subcutaneous injection from day 15 to day 28 continuously. The rats in the MCT group and MCT + CP40-KK group were received a single intraperitoneally injection of MCT (40 mg/kg) on day 1 and subcutaneously injected with either an equal volume of saline or CP40-KK (2 mg/kg) at day 15 to day 28 continuously. The dose selection of MCT and CP40-KK in our study was established based on previous studies.
Four weeks after the MCT injection, the experimental rats were weighed and anesthetized by intraperitoneal injecting pentobarbital sodium (40 mg/kg). After being anesthetized, rats were fixed in the supine position. A 3F polyethylene catheter filling with heparin was introduced into the right ventricle (RV) through the right jugular vein and the right atrium. Right ventricle systolic pressure (RVSP) was assessed by a pressure transducer and PowerLab system (AD Instruments, Australia). Pressure recordings were measured over a 2 min period and analyzed with Powerlab Pro Software (AD Instruments, Australia). After the hemodynamic study, the rats were euthanized by an overdose of anesthesia, and their lungs and hearts were dissected for further evaluation. The dry weights of the RV and left ventricle (LV) + septum were measured to calculate the RV/(LV + S) ratio and the RV / body weight (RV/BW). The left lung was fixed in 4% paraformaldehyde, and the right lung was snap-frozen in liquid nitrogen and stored at − 80 °C for further analysis.
Fixed lung samples were further fixed in 4% buffered paraformaldehyde for 24 h, embedded in paraffin, and processed for sectioning at 5 μm thick. Hematoxylin and eosin (H&E) staining were performed on paraffin-fixed lung tissue slides. The percent medial wall thickness (WT%) and percent medial wall area (WA%) were used to assess the extent of pulmonary vascular remodeling. WT% = (external diameter − internal diameter)/(external diameter) × 100%; WA% = (external area − internal area)/external area × 100%. All data were obtained and analyzed in a blinded manner.

[3] = test system: C3b; settings: cited from earlier work
[4] = test system: complement C3; settings: cited from earlier work
[5] = MCT 40 mg/kg i.p. day 1, 2 mg/kg/day s.c. day 15-28, vs MCT group, n = 6 per group

With CC[C@H](C)[C@H](NC(=O)[C@H](N)Cc1ccc(O)cc1)C(=O)N[C@H]1CSSC[C@@H](C(=O)N(C)[C@H](C(=O)N[C@@H](CCCCN)C(=O)N[C@@H](CCCCN)C(N)=O)[C@@H](C)CC)NC(=O)[C@H](CCCNC(=N)N)NC(=O)[C@H](Cc2c[nH]cn2)NC(=O)CN(C)C(=O)[C@H](Cc2c[nH]c3ccccc23)NC(=O)[C@H](CC(=O)O)NC(=O)[C@H](CCC(N)=O)NC(=O)[C@H](Cc2cn(C)c3ccccc23)NC(=O)[C@H](C(C)C)NC1=O [CP40-KK] (H-[dY]ICV[Trp(1-Me)]QDW[Sar]HRC[NMeI]KK-NH2; disulfide 3-12 (inferred)) the “CH50 value ex vivo, MCT + CP40-KK vs MCT group” value [1] was “could reverse it”, the “RV / (LV + S) ratio” value [2, 5] was “significantly ameliorate” and the “RV / BW ratio” value [2, 5] was “significantly ameliorate”. The RVSP [2, 5] was “significantly ameliorate”, the “pulmonary wall thickness index WA%” value [2, 5] was “significantly ameliorate” and the “pulmonary wall thickness index WT%” value [2, 5] was “significantly ameliorate”. The “PAH-related indices, CP40-KK only group vs saline only group” value ([2]; rats without MCT, 2 mg/kg s.c. day 15-28) was “no significant effect”, the “binding affinity for C3b relative to CP40” value [3] was “increase the binding affinity for C3b” and the “inhibitory potency relative to CP40” value [4] was “retaining its inhibitory potency”.
